From the CheMixHub ionic liquid set

Experiment: xn = mol fraction of the nth substance listed

CCCCOCCO + CCCC[n+]1ccn(C)c1.[Br-]
100 kPa, x2 = 0
Conditions | viscosity [mPa·s]
298.15 K | 2.79
303.15 K | 2.44
308.15 K | 2.22
313.15 K | 1.98

CCCOCCO + CCCC[n+]1ccn(C)c1.[Br-]
100 kPa, x2 = 0
Conditions | viscosity [mPa·s]
298.15 K | 2.38
303.15 K | 2.11
308.15 K | 1.88
313.15 K | 1.69

CC1COC(=O)O1 (configuration not stated) + CCCCn1cc[n+](C)c1C.O=S(=O)([N-]S(=O)(=O)C(F)(F)F)C(F)(F)F
101.3 kPa, x2 = 0
Conditions | viscosity [mPa·s]
288.15 K | 3.063
293.15 K | 2.746
343.15 K | 1.213

O + CCCO + CCCCCCCCCCCCOS(=O)(=O)[O-].[Na+]
Conditions | electrical conductivity [S/m]
298 K, 100 kPa, frequency 0.001 MHz, x2 = 0, x1 = 1 | 0.0005

CCC[N+]1(C)CCCC1.O=S(=O)([N-]S(=O)(=O)C(F)(F)F)C(F)(F)F + CCC[N+]1(C)CCCC1.N#C[N-]C#N
101 kPa, x2 = 0
Conditions | electrical conductivity [S/m] | viscosity [mPa·s]
313.15 K | 0.678 | 34.4
353.15 K | – | 11.6

CCC[N+]1(C)CCCC1.O=S(=O)([N-]S(=O)(=O)C(F)(F)F)C(F)(F)F + CCC[N+](C)(C)C.O=S(=O)([N-]S(=O)(=O)C(F)(F)F)C(F)(F)F
Conditions | viscosity [mPa·s]
298.15 K, 101.3 kPa, x2 = 0 | 61

CC[n+]1ccn(C)c1.N#C[N-]C#N + CCO
viscosity [mPa·s]
Conditions | 298.15 K | 303.15 K | 308.15 K | 313.15 K | 318.15 K | 323.15 K | 328.15 K | 343.15 K
100 kPa, x1 = 0.0997 | 1.85 | 1.71 | 1.56 | 1.44 | 1.33 | 1.23 | – | –
100 kPa, x1 = 0.196 | 2.7 | 2.47 | 2.25 | 2.07 | 1.9 | 1.75 | – | –
100 kPa, x1 = 0.3001 | 3.66 | 3.31 | 3.02 | 2.76 | 2.53 | 2.33 | – | –
100 kPa, x1 = 0.3945 | 4.62 | 4.16 | 3.78 | 3.45 | 3.16 | 2.9 | – | –
100 kPa, x1 = 0.4997 | 5.82 | 5.23 | 4.72 | 4.29 | 3.92 | 3.59 | – | –
100 kPa, x1 = 0.5993 | 7.11 | 6.35 | 5.71 | 5.16 | 4.7 | 4.29 | – | –
100 kPa, x1 = 0.7013 | 8.69 | 7.71 | 6.89 | 6.19 | 5.61 | 5.1 | – | –
100 kPa, x1 = 0.8014 | 10.45 | 9.21 | 8.17 | 7.3 | 6.57 | 5.95 | – | –
100 kPa, x1 = 0.8929 | 11.97 | 10.48 | 9.25 | 8.23 | 7.37 | 6.65 | – | –
100 kPa, x1 = 1 | 13.09 | 11.39 | 10 | 8.86 | 7.92 | 7.13 | – | –
101 kPa, x2 = 0 | – | – | – | 10.07 | – | – | 7.26 | –
101 kPa, x2 = 0.1981 | – | – | – | – | – | – | – | 4.25
101 kPa, x2 = 0.3596 | – | – | – | 5.68 | – | – | 4.29 | –
101 kPa, x2 = 0.6028 | 4.42 | – | – | – | – | – | – | –
101 kPa, x2 = 0.7678 | 2.72 | – | – | – | – | – | – | –

O=C1CCCCCN1 + CCO + CCCC[N+](CCCC)(CCCC)CCCC.[Cl-]
electrical conductivity [S/m], 101 kPa
Conditions | x1 = 0.0058, x3 = 0.0058 | x1 = 0.00584, x3 = 0.0058 | x1 = 0.00587, x3 = 0.00587 | x1 = 0.0059, x3 = 0.0059 | x2 = 0.555, x1 = 0.2225 | x2 = 0.6648, x1 = 0.1676 | x2 = 0.7728, x1 = 0.1136 | x2 = 0.8892, x1 = 0.0554
295.65 K | – | – | – | – | 0.218 | 0.2632 | 0.3032 | –
298.15 K | – | – | – | – | 0.232 | 0.268 | 0.31 | –
300.65 K | – | 0.0588 | – | – | 0.241 | 0.269 | 0.3143 | –
303.15 K | – | – | – | 0.0587 | 0.256 | 0.27 | 0.317 | 0.25
305.65 K | – | 0.0586 | – | – | 0.2704 | 0.2713 | 0.317 | 0.25
308.15 K | – | 0.0585 | – | – | 0.2842 | 0.2737 | 0.319 | 0.249
310.65 K | – | – | – | 0.0585 | 0.2936 | 0.276 | 0.3224 | 0.248
313.15 K | – | 0.0585 | – | – | 0.3023 | 0.278 | 0.325 | 0.248
315.65 K | – | – | – | 0.0587 | 0.308 | 0.28 | 0.328 | 0.248
318.15 K | – | – | – | 0.0587 | 0.3136 | 0.2821 | 0.329 | 0.248
320.65 K | – | 0.0587 | – | – | 0.3131 | 0.2841 | 0.3303 | 0.246
323.15 K | – | 0.0586 | – | – | 0.315 | 0.287 | 0.329 | 0.245
325.65 K | 0.0584 | – | – | – | 0.3129 | 0.288 | 0.327 | 0.246
328.15 K | 0.0576 | – | – | – | – | 0.289 | – | 0.246
330.65 K | – | 0.0569 | – | – | – | 0.288 | – | 0.245
333.15 K | – | – | 0.0562 | – | – | 0.288 | – | 0.245
